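Growth conditions: 96-well plates. Treatment: test compound, 48 hours, 5 concentrations. Analysis: linear interpolation between bracketing concentrations; unreached endpoints set to highest concentration. The concentration for 50% growth inhibition is given as GI50. TGI marks complete inhibition of growth.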
What was measured:
Experiment in all cases: growth of human tumour cells (NCI), 48 h
[1] = system: MCF7 breast
[2] = system: PC-3 prostate
[3] = system: A498 renal
[4] = system: LOX IMVI melanoma
[5] = system: NCI-H522 lung
[6] = system: M14 melanoma
[7] = system: SNB-19 CNS
[8] = system: NCI-H460 lung
[9] = system: UO-31 renal
[10] = system: HCC-2998 colon

| SMILES | TGI [1] [µM] | TGI [2] [µM] | TGI [3] [µM] | TGI [4] [µM] | TGI [5] [µM] | TGI [6] [µM] | TGI [7] [µM] | TGI [8] [µM] | TGI [9] [µM] | TGI [10] [µM] | GI50 [1] [µM] | GI50 [2] [µM] | GI50 [3] [µM] | GI50 [4] [µM] | GI50 [5] [µM] | GI50 [6] [µM] | GI50 [7] [µM] | GI50 [8] [µM] | GI50 [9] [µM] | GI50 [10] [µM] |
| --- | --- | --- | --- | --- | --- | --- | --- | --- | --- | --- | --- | --- | --- | --- | --- | --- | --- | --- | --- | --- |
| COC(=O)CCCC(=O)O | > 100 | > 100 | > 100 | > 100 | > 100 | > 100 | > 100 | > 100 | > 100 | – | – | – | – | – | – | – | – | – | – | – |
| CS(=O)(=O)N(N(CCCl)S(=O)(=O)c1ccccc1)S(C)(=O)=O | – | – | – | – | > 100 | > 100 | > 100 | > 100 | > 100 | > 100 | – | – | – | – | – | – | – | – | – | – |
| O=[N+]([O-])c1cccc(C2ON2C2CCCCC2)c1 (stereo not drawn) | – | – | 90.1 | – | 33.5 | 32.4 | 84.5 | 32.5 | 49.7 | 30.9 | – | – | – | – | – | – | – | – | – | – |
| C1=CC=C2NCCCNC3=CC=CC=CC3=NCCCN=C2C=C1 | – | – | > 100 | > 100 | – | > 100 | > 100 | > 100 | > 100 | > 100 | – | – | – | – | – | – | – | – | – | – |
| O=C(Nc1ccccc1)NS(=O)(=O)c1ccc(-n2nc3c(c2-c2ccc(Cl)cc2)Cc2ccccc2-3)cc1 | 28.2 | 47.8 | 66.8 | 46.4 | 67.4 | > 100 | > 100 | 85.1 | > 100 | – | 11.2 | 16.7 | 21.8 | 15.3 | 19 | 34.5 | 61.5 | 22.3 | 24.5 | – |
| O=C(CC1(O)C(=O)Nc2c(Cl)cc(Cl)cc21)c1cccc2ccccc12 (stereo not drawn) | – | – | 37.3 | 32.5 | 28.9 | 30.5 | 27.9 | 31.1 | – | – | – | – | – | – | – | – | – | – | – | – |
| O=C(Cc1nc2ccccc2s1)Nc1cccc(C(F)(F)F)c1 | – | – | 22.3 | 26.2 | 28.4 | 31.2 | 32.3 | 41.4 | 27.6 | 29.4 | – | – | – | – | – | – | – | – | – | – |
| O=[N+]([O-])c1cccc(-c2oc(C=Nc3ccccc3)c([N+](=O)[O-])c2-c2cccc([N+](=O)[O-])c2)c1 | – | – | > 100 | > 100 | > 100 | > 100 | – | > 100 | > 100 | > 100 | – | – | – | – | – | – | – | – | – | – |
| CCCCS(=O)(=O)CCC(N)C(=O)O (stereo not drawn) | > 100 | > 100 | > 100 | – | > 100 | > 100 | > 100 | > 100 | > 100 | > 100 | – | – | – | – | – | – | – | – | – | – |
| CCC(=O)c1c(NOC2OC(COC(C)=O)C(OC(C)=O)C(OC(C)=O)C2OC(C)=O)nc(OC)n(C)c1=O (stereo not drawn) | – | – | – | > 100 | > 100 | > 100 | > 100 | > 100 | – | > 100 | – | – | – | – | – | – | – | – | – | – |
| CC(C)CCN=C(N)c1ccc(N2CCN(c3ccc(C(N)=NCCC(C)C)cc3)CC2)cc1 | 33.8 | 43.4 | – | 57.3 | 73.4 | 29.6 | 24.2 | 49.3 | > 100 | 37.4 | 16.2 | 11.4 | – | 21.2 | 8.73 | 11.7 | 6.52 | 14.5 | 39.5 | 11.1 |
| C=C1CCC2C(C)(C)CCC[C@]2(C)[C@H]1CO (stereo partly drawn) | > 100 | > 100 | – | 70.2 | > 100 | > 100 | > 100 | > 100 | > 100 | 33 | 49.1 | 65.8 | – | 24.9 | 67.6 | 71.8 | > 100 | 59.8 | > 100 | 13.5 |
| COC1OC(COCc2ccc(Cl)cc2)C(OCc2ccc(Cl)cc2)C1N=[N+]=[N-] (stereo not drawn) | – | – | – | – | > 100 | > 100 | > 100 | > 100 | > 100 | > 100 | – | – | – | – | – | – | – | – | – | – |
| CC1(C)Cc2cc(C(=O)O)c3c(c2C1=O)COCC3 | – | – | > 100 | > 100 | > 100 | > 100 | > 100 | > 100 | > 100 | > 100 | – | – | – | – | – | – | – | – | – | – |
| Cc1cccc2c(=O)c3c(sc12)c(NCCNCCO)nc1ccccc13 | 2.72 | 2.73 | 3.7 | 2.92 | 3.54 | 3.37 | – | 2.64 | 2.34 | 3.11 | 1.24 | 1.3 | 1.67 | 1.5 | 1.63 | 1.68 | – | 1.19 | 1.09 | 1.55 |
| Cn1ccnc1C(=O)/C=C/c1ccccc1 | 6.77 | 37.4 | 17 | 14.3 | 14.9 | 10.4 | – | 11.4 | 71.4 | 5.38 | 1.27 | 12.5 | 5.05 | 2.99 | 3.38 | 3.41 | – | 3.2 | 4.69 | 2.36 |
| O=C(CCC(=O)C(C(=O)c1ccccc1)c1ccccc1)Nc1cccc(C(F)(F)F)c1 (stereo not drawn) | – | – | > 100 | > 100 | > 100 | > 100 | > 100 | > 100 | > 100 | > 100 | – | – | – | – | – | – | – | – | – | – |
| Fc1ccccc1C1CC(c2ccc3ccccc3c2)=Nc2ccccc2S1 (stereo not drawn) | – | – | > 100 | > 100 | > 100 | > 100 | > 100 | > 100 | > 100 | > 100 | – | – | – | – | – | – | – | – | – | – |
| CC1C[C@@H]2C(=O)NC(=O)[C@@H]2c2c1c1ccccc1n2C (stereo partly drawn) | – | – | > 100 | > 100 | > 100 | > 100 | > 100 | > 100 | > 100 | > 100 | – | – | – | – | – | – | – | – | – | – |
| CCc1cccc(C(C)C)c1NC(=O)C(=O)C(CC(=O)Nc1ccc(Cl)c(Cl)c1)C(=O)OC (stereo not drawn) | – | – | > 100 | > 100 | > 100 | > 100 | > 100 | > 100 | > 100 | > 100 | – | – | – | – | – | – | – | – | – | – |
| Cc1ccc(S(=O)(=O)OCC23CCC(CC2)C2CC23)cc1 (stereo not drawn) | – | – | > 100 | > 100 | – | > 100 | > 100 | > 100 | > 100 | > 100 | – | – | – | – | – | – | – | – | – | – |

Source: PubChem BioAssay (NCI)
